Experimental data reported in PMC11569205, “An allosteric inhibitor of RhoGAP class-IX myosins suppresses the metastatic features of cancer cells” (Nature Communications, 2024).
Like-named read-outs stand apart in the source and are kept apart here.

Columns and labels:
DdMyo5b = target: T1, DdMyo5b (Dictyostelium discoideum, UniProt P54697); experiment: biochemical; set-up: binding affinity of compound to purified myosin (technique not given in the excerpts)
T1 construct: gene myoJ; motor domain
Excerpt: (§1) Structural elements responsible for communicating conformational changes along the myosin ATPase cycle, such as the relay helix, the strut loop, and the W-helix, which form a central hub in the myosin motor domain for effective force production, flank the inhibitor binding site (Fig. 1K). The site buries a total protein surface area of 302.9 Å^2. This pocket is not visible in ligand-free DdMyo2 pre-power stroke structures and only formed by rearrangements of the side chains of residues S266 (β7-loop), E467 (relay helix), and K587 (strut) upon binding of the carbazole (Supplementary Fig. 1A). The aromatic carbazole moiety interacts primarily through hydrophobic contacts with F466 (relay helix) and V630 (W-helix), as well as cation-π interactions with K423 (O-helix) (Supplementary Fig. 1B). Four hydrogen bonds stabilize the inhibitor in its binding position: S465 (relay helix) and K587 (strut loop) interact with the hydroxy group of the ligand, and S465 (relay helix) and the main chain of E487 (relay helix) bind to the nitrogen of the carbazole framework. […] Rabbit fast skeletal muscle heavy meromyosin (skHMM) was prepared as described in ref. [129]. All other myosins were purified from native tissue or recombinant from the following organismal sources: D. discoideum (Dd), O. coniculus (Oc), S. scrofa (Ss), R. norvegicus (Rn), C. elegans (Ce), H. sapiens (Hs). Motor domain constructs of myosin-2, myosin-5a–5b, Ce myosin-9/Rn myosin-9b, were prepared as described previously in refs. [126],[130]–[135]. Hs nonmuscle myosin-2A (NM2a) was purified from SF9 cells using the baculovirus expression system as described in ref. [130] (for more information see Supplementary Table 5). F-actin was prepared according to the protocol by Lehrer and Kerwar[136].

Dd myosin-2 (DdMyo2) [1] = target: T2, Dd myosin-2 (DdMyo2) (Dictyostelium discoideum, UniProt P08799); experiment: biochemical; set-up: binding affinity of compound to purified myosin (technique not given in the excerpts)
T2 construct: gene mhcA; motor domain
T2 sequence (P08799 2-762): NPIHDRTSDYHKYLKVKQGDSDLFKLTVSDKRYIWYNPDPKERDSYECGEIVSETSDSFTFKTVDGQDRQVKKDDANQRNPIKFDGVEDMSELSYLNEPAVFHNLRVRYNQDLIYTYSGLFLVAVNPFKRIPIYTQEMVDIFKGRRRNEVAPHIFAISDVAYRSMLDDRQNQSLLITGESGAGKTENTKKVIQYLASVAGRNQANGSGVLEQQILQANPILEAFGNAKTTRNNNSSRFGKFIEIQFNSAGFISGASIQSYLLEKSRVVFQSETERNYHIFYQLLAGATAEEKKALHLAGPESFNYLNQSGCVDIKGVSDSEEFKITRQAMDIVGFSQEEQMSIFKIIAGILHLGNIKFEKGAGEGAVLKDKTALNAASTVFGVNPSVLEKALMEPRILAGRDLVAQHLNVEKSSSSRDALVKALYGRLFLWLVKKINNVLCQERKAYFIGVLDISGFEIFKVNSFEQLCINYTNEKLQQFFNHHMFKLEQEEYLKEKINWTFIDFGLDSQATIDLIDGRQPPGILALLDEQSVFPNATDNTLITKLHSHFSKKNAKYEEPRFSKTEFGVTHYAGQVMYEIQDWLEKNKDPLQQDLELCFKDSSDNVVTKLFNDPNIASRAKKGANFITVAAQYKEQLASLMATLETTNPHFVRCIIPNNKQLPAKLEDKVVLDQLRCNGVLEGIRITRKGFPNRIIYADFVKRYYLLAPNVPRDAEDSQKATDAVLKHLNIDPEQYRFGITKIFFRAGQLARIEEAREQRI
Excerpt: as §1

Dd myosin-2 (DdMyo2) [2] = target: T2, Dd myosin-2 (DdMyo2); experiment: biochemical; set-up: inhibition of myosin ATPase activity
Excerpt: (§2) We set out to identify a myosin class-IX specific inhibitor by screening an in-house compound library comprising halogenated pseudilins and carbazole derivatives, developed to target the ATPase activity of myosins[47],[48]. […] Low micromolar concentrations inhibited Myo9 motor function substantially, reducing sliding velocity and motile fraction of actin filaments in a reproducible and reversible manner (Fig. 1G, H). Importantly, the motor properties of other tested myosins remained unaffected (Fig. 1G). Rabbit fast skeletal muscle heavy meromyosin (skHMM) was prepared as described in ref. [129]. All other myosins were purified from native tissue or recombinant from the following organismal sources: D. discoideum (Dd), O. coniculus (Oc), S. scrofa (Ss), R. norvegicus (Rn), C. elegans (Ce), H. sapiens (Hs). Motor domain constructs of myosin-2, myosin-5a–5b, Ce myosin-9/Rn myosin-9b, were prepared as described previously in refs. [126],[130]–[135]. Hs nonmuscle myosin-2A (NM2a) was purified from SF9 cells using the baculovirus expression system as described in ref. [130] (for more information see Supplementary Table 5). F-actin was prepared according to the protocol by Lehrer and Kerwar[136].

Rn myosin-9b (Myo9b) [3] = target: T3, Rn myosin-9b (Myo9b) (Rattus norvegicus, UniProt Q63358); experiment: biochemical; set-up: inhibition of myosin ATPase activity
T3 construct: motor domain construct
Excerpt: as §2

Rn myosin-9b (Myo9b) [4] = target: T3, Rn myosin-9b (Myo9b); experiment: NADH-coupled basal and actin-activated ATPase assay; format: biochemical
Ce myosin-9 = target: T4, Ce myosin-9 (Caenorhabditis elegans, UniProt F0IWT2); experiment: NADH-coupled basal and actin-activated ATPase assay; in vitro actin motility; format: biochemical
T4 construct: gene hum-7; motor domain construct
Excerpt: NADH-coupled basal and actin-activated ATPase assay; in vitro actin motility on Ce myosin-9 | Inhibitory effect of adhibin on Cemyosin-9 and Rnmyosin-9b basal and actin-activated ATPase activities.

T1 sequence (P54697 whole entry, the tested form may be a part): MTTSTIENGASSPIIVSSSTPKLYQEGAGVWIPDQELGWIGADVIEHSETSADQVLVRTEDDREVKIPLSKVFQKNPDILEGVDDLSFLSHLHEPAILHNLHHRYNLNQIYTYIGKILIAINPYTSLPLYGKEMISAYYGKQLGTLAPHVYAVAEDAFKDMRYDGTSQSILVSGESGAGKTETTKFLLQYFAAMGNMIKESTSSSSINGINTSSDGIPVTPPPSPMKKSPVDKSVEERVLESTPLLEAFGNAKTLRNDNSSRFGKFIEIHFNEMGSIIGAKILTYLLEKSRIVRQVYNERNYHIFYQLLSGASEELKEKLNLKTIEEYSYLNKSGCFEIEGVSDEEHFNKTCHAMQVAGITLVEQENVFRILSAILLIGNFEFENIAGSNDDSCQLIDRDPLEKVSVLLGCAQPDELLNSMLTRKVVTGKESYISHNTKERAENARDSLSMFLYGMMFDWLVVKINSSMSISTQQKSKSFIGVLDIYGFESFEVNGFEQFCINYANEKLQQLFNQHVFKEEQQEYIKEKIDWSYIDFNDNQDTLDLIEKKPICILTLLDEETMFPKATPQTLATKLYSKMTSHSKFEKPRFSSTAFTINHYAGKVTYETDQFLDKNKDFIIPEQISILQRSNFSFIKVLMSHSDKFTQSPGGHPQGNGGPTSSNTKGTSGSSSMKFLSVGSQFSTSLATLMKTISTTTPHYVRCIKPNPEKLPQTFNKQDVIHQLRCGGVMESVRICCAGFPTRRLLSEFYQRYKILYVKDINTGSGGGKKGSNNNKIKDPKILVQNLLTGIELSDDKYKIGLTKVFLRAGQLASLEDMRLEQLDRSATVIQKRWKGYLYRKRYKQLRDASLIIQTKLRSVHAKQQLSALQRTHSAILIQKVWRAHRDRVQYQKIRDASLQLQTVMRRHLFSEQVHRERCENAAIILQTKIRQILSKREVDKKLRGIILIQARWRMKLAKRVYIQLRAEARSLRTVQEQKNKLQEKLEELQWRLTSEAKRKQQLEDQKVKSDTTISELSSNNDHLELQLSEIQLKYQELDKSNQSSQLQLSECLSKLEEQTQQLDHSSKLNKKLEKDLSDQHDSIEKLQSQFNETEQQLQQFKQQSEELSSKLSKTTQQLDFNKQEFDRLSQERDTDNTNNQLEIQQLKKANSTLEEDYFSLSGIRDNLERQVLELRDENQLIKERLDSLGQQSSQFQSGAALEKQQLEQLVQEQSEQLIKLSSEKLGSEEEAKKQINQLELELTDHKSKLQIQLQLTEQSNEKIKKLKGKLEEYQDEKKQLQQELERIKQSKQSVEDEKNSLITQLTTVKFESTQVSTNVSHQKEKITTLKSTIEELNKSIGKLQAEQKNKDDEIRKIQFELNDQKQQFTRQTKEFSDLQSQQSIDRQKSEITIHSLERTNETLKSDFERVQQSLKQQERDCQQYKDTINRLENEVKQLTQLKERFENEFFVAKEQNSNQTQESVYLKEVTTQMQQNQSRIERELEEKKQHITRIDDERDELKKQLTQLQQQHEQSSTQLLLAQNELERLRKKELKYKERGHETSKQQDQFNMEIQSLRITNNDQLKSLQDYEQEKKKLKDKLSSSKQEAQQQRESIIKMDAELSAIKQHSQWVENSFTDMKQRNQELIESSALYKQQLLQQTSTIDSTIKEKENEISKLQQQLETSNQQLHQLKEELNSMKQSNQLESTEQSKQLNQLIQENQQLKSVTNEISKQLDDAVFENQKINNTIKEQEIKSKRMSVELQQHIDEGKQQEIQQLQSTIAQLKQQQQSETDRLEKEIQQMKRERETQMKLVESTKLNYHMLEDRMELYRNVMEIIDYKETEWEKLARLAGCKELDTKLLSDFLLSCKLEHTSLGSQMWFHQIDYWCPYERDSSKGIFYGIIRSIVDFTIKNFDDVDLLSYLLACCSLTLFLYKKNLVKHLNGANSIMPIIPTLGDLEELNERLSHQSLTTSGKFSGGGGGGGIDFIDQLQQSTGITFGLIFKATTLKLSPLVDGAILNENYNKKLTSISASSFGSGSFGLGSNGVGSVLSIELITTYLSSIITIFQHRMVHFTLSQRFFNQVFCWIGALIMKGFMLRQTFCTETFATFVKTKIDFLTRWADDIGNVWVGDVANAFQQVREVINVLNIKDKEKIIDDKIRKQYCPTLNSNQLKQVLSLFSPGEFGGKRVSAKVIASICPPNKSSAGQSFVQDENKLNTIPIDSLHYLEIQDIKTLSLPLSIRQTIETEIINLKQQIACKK
T3 sequence (Q63358 2-954): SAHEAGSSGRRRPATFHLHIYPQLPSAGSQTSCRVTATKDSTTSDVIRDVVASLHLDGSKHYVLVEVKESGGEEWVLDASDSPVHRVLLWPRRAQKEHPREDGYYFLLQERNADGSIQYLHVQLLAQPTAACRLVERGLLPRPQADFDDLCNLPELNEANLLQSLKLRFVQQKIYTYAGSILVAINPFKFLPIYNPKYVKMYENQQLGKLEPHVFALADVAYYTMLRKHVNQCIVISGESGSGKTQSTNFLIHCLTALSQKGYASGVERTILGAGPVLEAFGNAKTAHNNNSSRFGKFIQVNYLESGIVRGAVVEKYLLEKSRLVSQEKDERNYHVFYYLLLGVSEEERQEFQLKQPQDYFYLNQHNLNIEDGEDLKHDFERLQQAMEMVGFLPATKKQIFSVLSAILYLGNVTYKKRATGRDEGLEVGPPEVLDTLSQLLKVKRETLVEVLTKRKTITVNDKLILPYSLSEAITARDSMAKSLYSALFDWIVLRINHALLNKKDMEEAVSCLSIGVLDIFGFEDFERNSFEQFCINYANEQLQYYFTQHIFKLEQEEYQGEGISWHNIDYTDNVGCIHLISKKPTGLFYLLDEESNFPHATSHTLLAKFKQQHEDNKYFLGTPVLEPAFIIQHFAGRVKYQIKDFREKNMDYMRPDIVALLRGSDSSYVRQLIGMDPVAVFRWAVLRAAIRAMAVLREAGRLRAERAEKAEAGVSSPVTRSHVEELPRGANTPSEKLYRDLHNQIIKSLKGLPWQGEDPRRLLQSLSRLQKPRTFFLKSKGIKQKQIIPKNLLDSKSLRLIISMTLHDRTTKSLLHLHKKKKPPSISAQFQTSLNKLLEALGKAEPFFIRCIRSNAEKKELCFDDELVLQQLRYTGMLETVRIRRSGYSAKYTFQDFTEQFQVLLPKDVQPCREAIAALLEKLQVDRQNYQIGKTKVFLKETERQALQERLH
T4 sequence (F0IWT2 entry or part of it): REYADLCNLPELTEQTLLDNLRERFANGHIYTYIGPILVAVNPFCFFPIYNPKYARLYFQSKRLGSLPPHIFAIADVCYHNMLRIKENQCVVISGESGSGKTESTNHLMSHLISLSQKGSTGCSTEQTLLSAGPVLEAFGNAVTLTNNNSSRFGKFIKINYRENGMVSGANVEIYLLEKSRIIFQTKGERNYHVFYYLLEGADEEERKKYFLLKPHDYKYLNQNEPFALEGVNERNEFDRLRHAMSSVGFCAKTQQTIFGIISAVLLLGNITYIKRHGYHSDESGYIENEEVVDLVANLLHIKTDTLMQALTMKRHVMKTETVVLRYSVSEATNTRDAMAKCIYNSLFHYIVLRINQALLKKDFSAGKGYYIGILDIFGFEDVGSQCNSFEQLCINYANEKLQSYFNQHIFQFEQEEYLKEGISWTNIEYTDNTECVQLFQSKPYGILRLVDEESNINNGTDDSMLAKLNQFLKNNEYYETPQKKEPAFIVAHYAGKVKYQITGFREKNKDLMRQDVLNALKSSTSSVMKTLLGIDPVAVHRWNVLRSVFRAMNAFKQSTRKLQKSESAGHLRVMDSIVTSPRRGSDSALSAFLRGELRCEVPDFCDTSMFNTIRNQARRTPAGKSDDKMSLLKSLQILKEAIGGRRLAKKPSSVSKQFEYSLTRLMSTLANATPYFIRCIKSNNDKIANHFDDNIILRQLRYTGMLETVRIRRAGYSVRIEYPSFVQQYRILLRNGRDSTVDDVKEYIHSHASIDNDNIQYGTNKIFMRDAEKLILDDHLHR

Row | Kd (DdMyo5b; read-out: KD) | Kd (Dd myosin-2 (DdMyo2) [1]; read-out: KD) | IC50 (Rn myosin-9b (Myo9b) [4]) | IC50 (Dd myosin-2 (DdMyo2) [2]; read-out: IC50) | IC50 (Ce myosin-9) | Structure (SMILES) | Kd (DdMyo5b) | Kd (Dd myosin-2 (DdMyo2) [1]) | IC50 (Dd myosin-2 (DdMyo2) [2]) | IC50 (Rn myosin-9b (Myo9b) [3])
1 | – | – | – | – | – | Cc1ccc2[nH]c3c(O)cc(Br)c(Br)c3c2c1 [compound 5, 3,4-dibromo-6-methyl-9H-carbazol-1-ol] | 33.2 ± 5.2 µM | 7.3 ± 4.1 µM | 22.6 ± 7.5 µM | 2 ± 0.3 µM
2 | 1.5 ± 0.5 µM | 14.9 ± 3.2 µM | 2.5 ± 0.2 µM | 37.7 ± 9.4 µM | 2.6 ± 0.2 µM | OCc1cc(Br)cc2c1[nH]c1ccc(Br)cc12 [compound 12, 3,6-dibromo-1-(hydroxymethyl)carbazole] | – | – | – | –
